Measurements: ChEMBL document CHEMBL5523715, “Inhibitory interactions of the 2,3-dihydro-6,7-dihydroxy-1H-isoindol-1-one scaffold with Bunyavirales cap-snatching endonucleases expose relevant drug design features” (Eur J Med Chem, 2024)
Active and inactive are the calls of the source. The rule behind the calls is not given here.

Columns and labels:
[1] = biological target: RNA-directed RNA polymerase L (Andes orthohantavirus, UniProt Q9E005); design: species or system Orthohantavirus andesense
[2] = biological target: RNA-directed RNA polymerase L (Bunyavirus La Crosse, UniProt A5HC98); design: species or system La Crosse virus
Chain of RNA-directed RNA polymerase L (Bunyavirus La Crosse, UniProt A5HC98) (A5HC98 whole entry): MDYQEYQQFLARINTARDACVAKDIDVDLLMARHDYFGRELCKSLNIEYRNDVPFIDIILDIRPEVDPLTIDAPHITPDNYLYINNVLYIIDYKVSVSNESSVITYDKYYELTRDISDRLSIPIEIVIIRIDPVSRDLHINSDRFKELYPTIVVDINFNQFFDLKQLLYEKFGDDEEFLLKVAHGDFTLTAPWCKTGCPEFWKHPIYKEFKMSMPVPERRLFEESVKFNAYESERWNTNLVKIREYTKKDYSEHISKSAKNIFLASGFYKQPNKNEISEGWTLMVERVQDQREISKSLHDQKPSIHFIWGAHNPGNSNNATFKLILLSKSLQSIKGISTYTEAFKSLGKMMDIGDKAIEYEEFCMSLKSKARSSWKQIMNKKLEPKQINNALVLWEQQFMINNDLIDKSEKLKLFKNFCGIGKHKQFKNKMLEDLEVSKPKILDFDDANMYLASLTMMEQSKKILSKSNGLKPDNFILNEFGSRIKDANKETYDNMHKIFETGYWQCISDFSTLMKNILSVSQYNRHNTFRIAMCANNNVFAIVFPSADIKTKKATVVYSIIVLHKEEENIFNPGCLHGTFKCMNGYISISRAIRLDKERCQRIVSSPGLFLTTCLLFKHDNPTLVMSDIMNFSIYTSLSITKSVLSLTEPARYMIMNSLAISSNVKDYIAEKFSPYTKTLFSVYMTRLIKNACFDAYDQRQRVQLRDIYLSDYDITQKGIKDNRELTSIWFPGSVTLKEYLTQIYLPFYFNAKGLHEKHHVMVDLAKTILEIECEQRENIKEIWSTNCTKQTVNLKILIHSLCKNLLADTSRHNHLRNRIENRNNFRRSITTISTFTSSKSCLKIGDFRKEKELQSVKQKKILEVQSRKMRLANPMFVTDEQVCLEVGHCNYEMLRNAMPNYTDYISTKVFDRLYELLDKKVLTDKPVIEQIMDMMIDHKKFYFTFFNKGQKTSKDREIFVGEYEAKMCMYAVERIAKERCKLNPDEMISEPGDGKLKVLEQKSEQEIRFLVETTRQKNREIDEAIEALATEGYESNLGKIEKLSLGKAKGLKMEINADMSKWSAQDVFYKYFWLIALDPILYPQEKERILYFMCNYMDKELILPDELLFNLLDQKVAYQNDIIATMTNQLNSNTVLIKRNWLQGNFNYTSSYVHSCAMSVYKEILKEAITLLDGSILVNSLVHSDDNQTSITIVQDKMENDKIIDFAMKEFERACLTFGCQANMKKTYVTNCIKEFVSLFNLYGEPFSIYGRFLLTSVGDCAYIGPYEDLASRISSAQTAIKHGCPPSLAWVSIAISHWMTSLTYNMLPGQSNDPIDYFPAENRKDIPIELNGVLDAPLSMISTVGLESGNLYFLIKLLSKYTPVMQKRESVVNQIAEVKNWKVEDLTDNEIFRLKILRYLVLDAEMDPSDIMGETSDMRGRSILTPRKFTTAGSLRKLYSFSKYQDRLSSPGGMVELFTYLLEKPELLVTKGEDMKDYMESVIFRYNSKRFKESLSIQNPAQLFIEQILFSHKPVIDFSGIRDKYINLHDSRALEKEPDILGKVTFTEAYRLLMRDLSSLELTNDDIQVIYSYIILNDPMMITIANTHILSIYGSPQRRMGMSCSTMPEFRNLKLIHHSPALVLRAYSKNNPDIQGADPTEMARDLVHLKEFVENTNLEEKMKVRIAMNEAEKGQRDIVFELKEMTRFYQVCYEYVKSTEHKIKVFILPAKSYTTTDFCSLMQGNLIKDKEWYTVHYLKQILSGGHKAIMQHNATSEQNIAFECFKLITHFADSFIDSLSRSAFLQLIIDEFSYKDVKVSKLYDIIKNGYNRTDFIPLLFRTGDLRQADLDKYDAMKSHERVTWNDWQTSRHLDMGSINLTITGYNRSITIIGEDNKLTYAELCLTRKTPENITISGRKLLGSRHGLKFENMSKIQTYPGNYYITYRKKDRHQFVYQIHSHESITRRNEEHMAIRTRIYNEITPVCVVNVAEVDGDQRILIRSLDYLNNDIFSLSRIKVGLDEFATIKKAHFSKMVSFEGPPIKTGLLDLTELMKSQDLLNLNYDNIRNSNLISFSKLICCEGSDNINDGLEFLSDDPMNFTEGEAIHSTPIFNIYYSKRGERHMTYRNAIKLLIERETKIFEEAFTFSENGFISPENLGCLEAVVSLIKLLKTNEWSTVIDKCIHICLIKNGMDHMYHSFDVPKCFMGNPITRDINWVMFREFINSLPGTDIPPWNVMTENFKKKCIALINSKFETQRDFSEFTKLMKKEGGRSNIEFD

Pichinde virus = test: Thermal stabilization of PICV cap-ENDO assessed as increase in melting temperature at 25 uM in presence of MnCl2 by Sypro Orange dye based assay
Mammarenavirus lassaense = test: Thermal stabilization of LASV cap-ENDO assessed as increase in melting temperature at 25 uM in presence of MnCl2 by Sypro Orange dye based assay
[3] = biological target: RNA-directed RNA polymerase L (Toscana virus) (UniProt P37800); conditions: dose 25.0 µM
[4] = biological target: RNA-directed RNA polymerase L (Andes orthohantavirus) (UniProt Q9E005); conditions: Orthohantavirus andesense; dose 25.0 µM
[5] = biological target: RNA-directed RNA polymerase L (Bunyavirus La Crosse) (UniProt A5HC98); conditions: La Crosse virus; dose 25.0 µM
Chain of RNA-directed RNA polymerase L (Bunyavirus La Crosse) (A5HC98 whole entry): as above

[6] = system: Mammarenavirus choriomeningitidis; test: Thermal stabilization of LCMV cap-ENDO assessed as increase in melting temperature at 25 uM in presence of MnCl2 by Sypro Orange dye based assay
[7] = biological target: T1, RNA-directed RNA polymerase L (Toscana virus, UniProt P37800)
[8] = Metal chelating activity assessed as compound-Mg(II) complex formation by measuring apparent formation constant (K) by UV-Vis spectrophotometric analysis; assay type: functional
[9] = Metal chelating activity assessed as compound-Mn(II) complex formation by measuring apparent formation constant (K) by UV-Vis spectrophotometric analysis; assay type: functional
[10] = biological target: RNA-directed RNA polymerase L (Toscana virus) (UniProt P37800)
[11] = biological target: RNA-directed RNA polymerase L (Toscana virus) (UniProt P37800); remark: listed apart in the source
[12] = biological target: T1, RNA-directed RNA polymerase L; remark: listed apart in the source
[13] = biological target: RNA-directed RNA polymerase L (Toscana virus) (UniProt P37800); remark: listed apart in the source

| SMILES | IC50 [1] [µM] | IC50 [2] [µM] | Activity (Pichinde virus) | Activity (Mammarenavirus lassaense) | Activity [3] | Activity [4] | Activity [5] | Activity [6] | IC50 [7] [µM] | other results |
| --- | --- | --- | --- | --- | --- | --- | --- | --- | --- | --- |
| O=C1c2c(ccc(O)c2O)CN1CCc1ccc(O)cc1 | 1 | 6.1 | Active | Active | Active | Active | Active | Active | 2.8 |  |
| O=C1c2c(ccc(O)c2O)CN1Cc1ccc(F)cc1 | 1.7 | 4 | Active | Active | Active | Active | Active | Active | 5.7 |  |
| Cc1ccc(CN2Cc3ccc(O)c(O)c3C2=O)cc1 | 6.4 | 3.4 | Active | Active | Active | Active | Active | Active | 1.5 |  |
| O=C1c2c(ccc(O)c2O)CN1Cc1ccc(O)cc1 | 1.6 | 0.7 | Active | Active | Active | Active | Active | Active | 3.6 | log(activity) [8]: 2.31; log(activity) [9]: 3.37 |
| O=C1c2c(ccc(O)c2O)CN1Cc1ccc2ccccc2c1 | 1.9 | 3.9 | Active | Active | Active | Active | Active | Active | 5.8 |  |
| O=C1c2c(ccc(O)c2O)CN1Cc1ccccc1 | 1.1 | 9 | inactive | inactive | inactive | inactive | inactive | inactive | 3.3 |  |
| O=C1c2c(ccc(O)c2O)CN1Cc1cc(O)c(O)c(O)c1 | 1.5 | 1.1 | Active | Active | Active | Active | Active | Active | 0.9 |  |
| O=C1c2c(ccc(O)c2O)CN1Cc1cccc2ccccc12 | 3.8 | 11.2 | Active | Active | Active | Active | Active | Active | 7.8 |  |
| O=C1c2c(ccc(O)c2O)CN1Cc1ccc(F)c(Cl)c1 | 7.6 | 4.8 | inactive | inactive | inactive | inactive | inactive | inactive | 13.4 |  |
| O=C1c2c(ccc(O)c2O)CN1Cc1ccc(Cl)c(C(F)(F)F)c1 | 1.3 | 29.2 | Active | Active | Active | Active | Active | Active | 7.3 |  |
| O=C1c2c(ccc(O)c2O)CN1Cc1ccc([N+](=O)[O-])cc1 | 3.7 | 8 | Active | Active | Active | Active | Active | Active | 4.7 |  |
| O=C1c2c(ccc(O)c2O)CN1Cc1ccc(O)c(O)c1 | 0.5 | 4 |  |  |  |  |  |  | 2.4 | deltaH [10]: -7.97 kcal/mol; -TdeltaS [11]: 1.76 kcal/mol; Kd [12]: 28 µM; deltaG [13]: -6.22 kcal/mol; ΔTm (Pichinde virus): < 1 °C; ΔTm (Mammarenavirus lassaense): < 1 °C; ΔTm [3]: > 1 °C; ΔTm [4]: > 1 °C; ΔTm [5]: > 1 °C; ΔTm [6]: < 1 °C |
